Assay results published in patent US20170190671A1, “BIS(ARYL)CATECHOL DERIVATIVES AS HERBICIDES” (E I DU PONT DE NEMOURS AND COMPANY, priority 2014, published 2017).

Experiments:
Assay type in all cases: in vivo
[1] = system: barnyardgrass (Echinochloa crus-galli); assay: Test A preemergence; conditions: Echinochloa crus-galli, pre-emergence, 240 h
Outline: (§1)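 Greenhouse pot test, loam/sand soil. Formulation: non-phytotoxic solvent mix plus surfactant. Pre: directed spray onto soil after sowing. Post: plants at 1–2 leaf, 2–10 cm. Rated visually vs untreated controls at ~10 d, 0 (no effect) to 100 (complete control).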

[2] = system: pigweed (Amaranthus retroflexus); assay: Test A preemergence; conditions: Amaranthus retroflexus, pre-emergence, 240 h
Outline: as §1

kochia (Kochia scoparia) [3] = assay: Test A preemergence; conditions: Bassia scoparia, pre-emergence, 240 h
Outline: as §1

[4] = system: ragweed (common ragweed, Ambrosia elatior); assay: Test A preemergence; conditions: Ambrosia artemisiifolia, pre-emergence, 240 h
Outline: as §1

[5] = system: giant foxtail (Setaria faberii); assay: Test A preemergence; conditions: Setaria faberi, pre-emergence, 240 h
Outline: as §1

[6] = system: Italian ryegrass (Lolium multiflorum); assay: Test A preemergence; conditions: Lolium multiflorum, pre-emergence, 240 h
Outline: as §1

rice (Oryza sativa) = assay: Test B flooded paddy; conditions: Oryza sativa, 336 h; 250 g ai/ha, Flood, 13 to 15 days, scale 0 (no effect) to 100 (complete control); read-out: Plant response rating, Rice
Outline: (§2)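 Ratings were visual and made relative to untreated controls after 13 to 15 greenhouse days.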

[7] = system: barnyardgrass (Echinochloa crus-galli); assay: Test B flooded paddy; conditions: Echinochloa crus-galli, 336 h; 250 g ai/ha, Flood, 13 to 15 days, scale 0 (no effect) to 100 (complete control); read-out: Plant response rating, Barnyardgrass
Outline: as §2

[8] = system: sedge, umbrella (small-flower umbrella sedge, Cyperus difformis); assay: Test B flooded paddy; conditions: Cyperus difformis, 336 h; 250 g ai/ha, Flood, 13 to 15 days, scale 0 (no effect) to 100 (complete control); read-out: Plant response rating, Sedge, Umbrella
Outline: as §2

[9] = system: ducksalad (Heteranthera limosa); assay: Test B flooded paddy; conditions: Heteranthera limosa, 336 h; 250 g ai/ha, Flood, 13 to 15 days, scale 0 (no effect) to 100 (complete control); read-out: Plant response rating, Ducksalad
Outline: as §2

[10] = system: barnyardgrass (Echinochloa crus-galli); assay: Test C preemergence; conditions: Echinochloa crus-galli, pre-emergence, read-out: Plant response rating, Barnyardgrass
Outline: (§3)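 Greenhouse test, preemergence on seeded soil or postemergence on 1- to 4-leaf plants. Response is a visual 0-100 rating versus controls, taken 13-15 days after treatment.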

[11] = system: lambsquarters (Chenopodium album); assay: Test C preemergence; conditions: Chenopodium album, pre-emergence, 336 h, scale 0 to 100, read-out: Plant response rating, Lambsquarters
Outline: as §3

[12] = system: blackgrass (Alopecurus myosuroides); assay: Test A postemergence; conditions: Alopecurus myosuroides, post-emergence, 240 h, 0 to 100 scale, read-out: Plant response rating, Blackgrass
Outline: as §1

[13] = system: barnyardgrass (Echinochloa crus-galli); assay: Test A postemergence; conditions: Echinochloa crus-galli, post-emergence, 240 h, 0 to 100 scale, read-out: Plant response rating, Barnyardgrass
Outline: as §1

[14] = system: pigweed (Amaranthus retroflexus); assay: Test A postemergence; conditions: Amaranthus retroflexus, post-emergence, 240 h, 0 to 100 scale, read-out: Plant response rating, Pigweed
Outline: as §1

kochia (Kochia scoparia) [15] = assay: Test A postemergence; conditions: Bassia scoparia, post-emergence, 240 h, 0 to 100 scale, read-out: Plant response rating, Kochia
Outline: as §1

corn (Zea mays) = assay: Test A postemergence; conditions: Zea mays, post-emergence, 240 h, 0 to 100 scale
Outline: as §1

[16] = system: ragweed (common ragweed, Ambrosia elatior); assay: Test A postemergence; conditions: Ambrosia artemisiifolia, post-emergence, 240 h, 0 to 100 scale, read-out: Plant response rating, Ragweed
Outline: as §1

[17] = system: wheat (Triticum aestivum); assay: Test A postemergence; conditions: Triticum aestivum, post-emergence, 240 h, 0 to 100 scale, read-out: Plant response rating, Wheat
Outline: as §1

[18] = system: giant foxtail (Setaria faberii); assay: Test A postemergence; conditions: Setaria faberi, post-emergence, 240 h, 0 to 100 scale, read-out: Plant response rating, Foxtail, Giant
Outline: as §1

[19] = system: Italian ryegrass (Lolium multiflorum); assay: Test A postemergence; conditions: Lolium multiflorum, post-emergence, 240 h, 0 to 100 scale, read-out: Plant response rating, Ryegrass, Italian
Outline: as §1

[20] = system: galium (catchweed bedstraw, Galium aparine); assay: Test A postemergence; conditions: Galium, post-emergence, 240 h, 0 to 100 scale, read-out: Plant response rating, Galium
Outline: as §1

Molecule `Fc1cccc(Oc2ncc(C(F)(F)F)cn2)c1Oc1ncc(Cl)cn1` [Compound 42, 5-chloro-2-[2-fluoro-6-[[5-(trifluoromethyl)-2-pyrimidinyl]oxy]phenoxy]pyrimidine] has a pest or weed control at 125 g/ha ([1]; 125 g ai/ha, 0 to 100 scale (0 no effect, 100 complete control), read-out: Barnyardgrass plant response rating) of 100%, a pest or weed control at 500 g/ha ([1]; 500 g ai/ha, 0 to 100 scale, read-out: Plant response rating, Barnyardgrass) of 100% and a pest or weed control at 125 g/ha ([2]; 125 g ai/ha, 0 to 100 scale (0 no effect, 100 complete control), read-out: Pigweed plant response rating) of 100%. For the same molecule, the pest or weed control at 500 g/ha ([2]; 500 g ai/ha, 0 to 100 scale, read-out: Plant response rating, Pigweed) was 100%, the pest or weed control at 125 g/ha (kochia (Kochia scoparia) [3]; 125 g ai/ha, 0 to 100 scale (0 no effect, 100 complete control), read-out: Kochia plant response rating) was 100% and the pest or weed control at 500 g/ha (kochia (Kochia scoparia) [3]; 500 g ai/ha, 0 to 100 scale, read-out: Plant response rating, Kochia) was 100%. For the same molecule, the pest or weed control at 125 g/ha ([4]; 125 g ai/ha, 0 to 100 scale (0 no effect, 100 complete control), read-out: Ragweed plant response rating) was 100%, the pest or weed control at 500 g/ha ([4]; 500 g ai/ha, 0 to 100 scale, read-out: Plant response rating, Ragweed) was 100% and the pest or weed control at 125 g/ha ([5]; 125 g ai/ha, 0 to 100 scale (0 no effect, 100 complete control), read-out: Foxtail, Giant plant response rating) was 100%. It also gave a pest or weed control at 500 g/ha ([5]; 500 g ai/ha, 0 to 100 scale, read-out: Plant response rating, Foxtail, Giant) of 100%, a pest or weed control at 125 g/ha ([6]; 125 g ai/ha, 0 to 100 scale (0 no effect, 100 complete control), read-out: Ryegrass, Italian plant response rating) of 60% and a pest or weed control at 500 g/ha ([6]; 500 g ai/ha, 0 to 100 scale, read-out: Plant response rating, Ryegrass, Italian) of 100%. The plant injury at 250 g/ha (rice (Oryza sativa)) was 80%, the pest or weed control at 250 g/ha [7] was 100% and the pest or weed control at 250 g/ha [8] was 100%. For the same molecule, the pest or weed control at 250 g/ha [9] was 100%, the pest or weed control at 31 g/ha ([10]; 31 g ai/ha, preemergence, scale 0 to 100) was 90% and the pest or weed control at 62 g/ha ([10]; 62 g ai/ha, preemergence, scale 0 to 100) was 100%. For the same molecule, the pest or weed control at 125 g/ha ([10]; 125 g ai/ha, preemergence, scale 0 to 100) was 100%, the pest or weed control at 16 g/ha ([10]; Preemergence, 16 g ai/ha, scale 0 to 100 (0 no effect, 100 complete control)) was 50% and the pest or weed control at 31 g/ha ([11]; 31 g ai/ha, preemergence) was 100%. For the same molecule, the pest or weed control at 62 g/ha ([11]; 62 g ai/ha, preemergence) was 100%, the pest or weed control at 125 g/ha ([11]; 125 g ai/ha, preemergence) was 100% and the pest or weed control at 16 g/ha ([11]; Preemergence, 16 g ai/ha) was 100%. It also gave a pest or weed control at 125 g/ha ([12]; 125 g ai/ha) of 90%, a pest or weed control at 500 g/ha ([12]; 500 g ai/ha) of 100% and a pest or weed control at 125 g/ha ([13]; 125 g ai/ha) of 100%. It also gave a pest or weed control at 500 g/ha ([13]; 500 g ai/ha) of 100%, a pest or weed control at 125 g/ha ([14]; 125 g ai/ha) of 100% and a pest or weed control at 500 g/ha ([14]; 500 g ai/ha) of 100%. For the same molecule, the pest or weed control at 125 g/ha (kochia (Kochia scoparia) [15]; 125 g ai/ha) was 100%, the pest or weed control at 500 g/ha (kochia (Kochia scoparia) [15]; 500 g ai/ha) was 100% and the Corn plant response rating (crop injury, 0 = no effect, 100 = complete kill) at 125 g/ha (corn (Zea mays); 125 g ai/ha) was 80%. For the same molecule, the Corn plant response rating (crop injury, 0 = no effect, 100 = complete kill) at 500 g/ha (corn (Zea mays); 500 g ai/ha) was 100%, the pest or weed control at 125 g/ha ([16]; 125 g ai/ha) was 70% and the pest or weed control at 500 g/ha ([16]; 500 g ai/ha) was 100%. The plant injury at 125 g/ha ([17]; 125 g ai/ha) was 80%, the plant injury at 500 g/ha ([17]; 500 g ai/ha) was 100% and the pest or weed control at 125 g/ha ([18]; 125 g ai/ha) was 100%. It also gave a pest or weed control at 500 g/ha ([18]; 500 g ai/ha) of 100%, a pest or weed control at 125 g/ha ([19]; 125 g ai/ha) of 100% and a pest or weed control at 500 g/ha ([19]; 500 g ai/ha) of 100%. The pest or weed control at 125 g/ha ([20]; 125 g ai/ha) was 100% and the pest or weed control at 500 g/ha ([20]; 500 g ai/ha) was 100%.
